Laboratory results as given in patent US20060069132A1, “Azolecarboxamide herbicides” (priority 2004, published 2006).

Legend:
southern sandbur = assay: Test E pre-/postemergence herbicide test; type: in vivo, Cenchrus echinatus; conditions: Preemergence
Method in brief: (§1)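 In this greenhouse assay, compounds in a solvent vehicle containing surfactant were applied pre- and postemergence, the latter to plants 2 to 18 cm high. Control was judged by eye after 12 to 14 days on a 0 to 100 scale.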

dallisgrass = assay: Test E pre-/postemergence herbicide test; type: in vivo, Paspalum dilatatum; conditions: Preemergence
Method in brief: as §1

blackgrass = assay: Test C postemergence herbicide test; type: in vivo, Alopecurus myosuroides
Method in brief: (§2)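 Visual rating, 0 (no effect) to 100 (complete control), vs. controls at 12–14 d in greenhouse. Postemergence: 1–4-leaf plants, 2–18 cm. Paddy: flooded, barnyardgrass at 2-leaf stage.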

bipinnate beggarticks = assay: Test E pre-/postemergence herbicide test; type: in vivo, Bidens bipinnata; conditions: Preemergence
Method in brief: as §1

common ragweed = assay: Test E pre-/postemergence herbicide test; type: in vivo, Ambrosia elatior; conditions: Preemergence
Method in brief: as §1

common sowthistle = assay: Test E pre-/postemergence herbicide test; type: in vivo, Sonchus oleraceous; conditions: Preemergence
Method in brief: as §1

winter barley = assay: Test C postemergence herbicide test; type: in vivo, Hordeum vulgare
Method in brief: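 Plants were grown to the 1- to 4-leaf stage (2–18 cm) and then treated postemergence, or grown to the 2-leaf stage for the flooded paddy test. They were held in a greenhouse for 12 to 14 days and then scored by eye against controls, where 0 is no effect and 100 is complete control.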

Russian thistle = assay: Test E pre-/postemergence herbicide test; type: in vivo, Salsola kali; conditions: Preemergence
Method in brief: as §1

goosegrass = assay: Test E pre-/postemergence herbicide test; type: in vivo, Eleusine indica; conditions: Preemergence
Method in brief: as §1

field bindweed = assay: Test E pre-/postemergence herbicide test; type: in vivo, Convolvulus arvensis; conditions: Preemergence
Method in brief: as §1

downy bromegrass = assay: Test E pre-/postemergence herbicide test; type: in vivo, Bromus tectorum; conditions: Preemergence
Method in brief: as §1

wheat = assay: Test C postemergence herbicide test; type: in vivo, Triticum aestivum
Method in brief: as §2

[1] = 250 g ai/ha, scale 0 (no effect) to 100 (complete control)
[2] = 500 g ai/ha, scale 0 (no effect) to 100 (complete control)
[3] = Postemergence, 500 g ai/ha, scale 0 to 100
[4] = Postemergence, 250 g ai/ha, scale 0 to 100, 0 no effect, 100 complete control
[5] = postemergence, 125 g ai/ha, scale 0 to 100
[6] = postemergence, 62 g ai/ha, scale 0 to 100

**Q.** With `CCNC(=O)c1cccc(NC(=O)c2nn(C(C)(C)C)nc2C)c1` [Compound 392] as the molecule, how does the “Plant response rating, Sandbur” value (southern sandbur; 62 g ai/ha, scale 0 to 100) read?
**A.** 0

**Q.** What about the “Plant response rating, Sandbur” value (southern sandbur; 125 g ai/ha, scale 0 to 100) of the same molecule?
**A.** 10

**Q.** And the “Plant response rating, Sandbur” value (southern sandbur; [1])?
**A.** 20

**Q.** And the “Plant response rating, Sandbur” value (southern sandbur; [2])?
**A.** 70

**Q.** What about the “Plant response rating, Dallisgrass” value (dallisgrass; 62 g ai/ha, scale 0 to 100) of the same molecule?
**A.** 10

**Q.** And the “Plant response rating, Dallisgrass” value (dallisgrass; 125 g ai/ha, scale 0 to 100)?
**A.** 60

**Q.** What about the “Plant response rating, Dallisgrass” value (dallisgrass; [1]) of the same molecule?
**A.** 75

**Q.** And the “Plant response rating, Dallisgrass” value (dallisgrass; [2])?
**A.** 100

**Q.** And the “Blackgrass plant response rating” value (blackgrass; [3])?
**A.** 65

**Q.** And the “Plant response rating, Blackgrass” value (blackgrass; [4])?
**A.** 45

**Q.** And the “Plant response rating, Blackgrass” value (blackgrass; [5])?
**A.** 45

**Q.** What about the “Plant response rating, Blackgrass” value (blackgrass; [6]) of the same molecule?
**A.** 35

**Q.** And the “Plant response rating, Beggarticks, Bip.” value (bipinnate beggarticks; 125 g ai/ha, scale 0 to 100)?
**A.** 10

**Q.** And the “Plant response rating, Beggarticks, Bip.” value (bipinnate beggarticks; [1])?
**A.** 80

**Q.** What about the “Plant response rating, Beggarticks, Bip.” value (bipinnate beggarticks; [2]) of the same molecule?
**A.** 100

**Q.** And the “Plant response rating, Ragweed” value (common ragweed; 62 g ai/ha, scale 0 to 100)?
**A.** 30

**Q.** And the “Plant response rating, Ragweed” value (common ragweed; 125 g ai/ha, scale 0 to 100)?
**A.** 30

**Q.** What about the “Plant response rating, Ragweed” value (common ragweed; [1]) of the same molecule?
**A.** 70

**Q.** And the “Plant response rating, Ragweed” value (common ragweed; [2])?
**A.** 100

**Q.** And the “Plant response rating, Sowthistle” value (common sowthistle; 62 g ai/ha, scale 0 to 100)?
**A.** 20

**Q.** What about the “Plant response rating, Sowthistle” value (common sowthistle; 125 g ai/ha, scale 0 to 100) of the same molecule?
**A.** 95

**Q.** What about the “Plant response rating, Sowthistle” value (common sowthistle; [1]) of the same molecule?
**A.** 95

**Q.** And the “Plant response rating, Sowthistle” value (common sowthistle; [2])?
**A.** 95

**Q.** And the “Barley, Winter plant response rating” value (winter barley; [3])?
**A.** 35

**Q.** What about the “Plant response rating, Barley, Winter” value (winter barley; Postemergence, 125 g ai/ha, scale 0 to 100, 0 no effect, 100 complete control) of the same molecule?
**A.** 35

**Q.** And the “Plant response rating, Barley, Winter” value (winter barley; [4])?
**A.** 35

**Q.** And the “Plant response rating, Barley, Winter” value (winter barley; postemergence, 62 g ai/ha, scale 0 to 100 (0 no effect, 100 complete control))?
**A.** 35

**Q.** What about the “Plant response rating, Thistle” value (Russian thistle; 125 g ai/ha, scale 0 to 100) of the same molecule?
**A.** 10

**Q.** And the “Plant response rating, Thistle” value (Russian thistle; [2])?
**A.** 100

**Q.** And the “Plant response rating, Goosegrass” value (goosegrass; 62 g ai/ha, scale 0 to 100)?
**A.** 20

**Q.** What about the “Plant response rating, Goosegrass” value (goosegrass; 125 g ai/ha, scale 0 to 100) of the same molecule?
**A.** 70

**Q.** What about the “Plant response rating, Goosegrass” value (goosegrass; [1]) of the same molecule?
**A.** 85

**Q.** What about the “Plant response rating, Goosegrass” value (goosegrass; [2]) of the same molecule?
**A.** 95

**Q.** What about the “Plant response rating, Bindweed, Field” value (field bindweed; 62 g ai/ha, scale 0 to 100) of the same molecule?
**A.** 30

**Q.** What about the “Plant response rating, Bindweed, Field” value (field bindweed; 125 g ai/ha, scale 0 to 100) of the same molecule?
**A.** 30

**Q.** And the “Plant response rating, Bindweed, Field” value (field bindweed; [1])?
**A.** 100

**Q.** What about the “Plant response rating, Bindweed, Field” value (field bindweed; [2]) of the same molecule?
**A.** 100

**Q.** And the “Plant response rating, Bromegrass, Downy” value (downy bromegrass; 62 g ai/ha, scale 0 to 100)?
**A.** 10

**Q.** And the “Plant response rating, Bromegrass, Downy” value (downy bromegrass; 125 g ai/ha, scale 0 to 100)?
**A.** 20

**Q.** And the “Plant response rating, Bromegrass, Downy” value (downy bromegrass; [1])?
**A.** 30

**Q.** And the “Plant response rating, Bromegrass, Downy” value (downy bromegrass; [2])?
**A.** 30

**Q.** What about the “Plant response rating, Wheat” value (wheat; Postemergence, 500 g ai/ha, scale 0 to 100, 0 no effect, 100 complete control) of the same molecule?
**A.** 35

**Q.** What about the “Plant response rating, Wheat” value (wheat; [5]) of the same molecule?
**A.** 30

**Q.** And the “Plant response rating, Wheat” value (wheat; [6])?
**A.** 20
